Measurements from patent publication US20250195530A1, “POLQ INHIBITORS” (ASTRAZENECA AB, priority 2022, published 2025).
Read-outs that look alike come from different tables or passages of the source. Values belong to the compound of their own block, whether it stands above or below them.

Key:
[1] = test system: DLD-1 cells; experiment: Inhibition of proliferation, DLD-1 BRCA2 wt control (Cell Titre Glo 3D); format: cell-based; conditions: Homo sapiens
How it was run: (§1)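 Wild-type DLD-1 serves as the control for non-specific toxicity, and BRCA2-null DLD-1 as the homologous-recombination-deficient line. Both grew with compound from 10 μM down to 0.51 nM, re-dosed after 6 days. Luminescent ATP content (CellTiter-Glo 3D) was read after 7 or 12 days, respectively, to give IC50 values.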

[2] = test system: DLD-1 BRCA2−/− cells; experiment: Homologous recombination synthetic lethal inhibition of proliferation, DLD-1 BRCA2-/- (Cell Titre Glo 3D); format: cell-based; conditions: Homo sapiens
How it was run: as §1

[3] = DLD-1, DLD-1 BRCA2 wt control proliferation, column head only partly shown, read-out: POLQ PD Prolif Lumin (converted)
[4] = DLD-1, DLD-1 BRCA2-/- proliferation, column head only partly shown, read-out: POLQ PD Prolif Lumin (converted)
[5] = DLD-1, 168 h, DLD-1 BRCA2 wt cells, 7 days, read-out: POLQ PD Prolif Lumin DLD1 mean pIC50 (converted)
[6] = DLD-1, 288 h, DLD-1 BRCA2−/− cells, 12 days, read-out: POLQ PD Prolif Lumin BRCA2 −/− mean pIC50 (converted)
[7] = DLD-1, second proliferation column (c6), DLD-1 BRCA2 wt control, read-out: POLQ PD Prolif Lumin (converted)
[8] = DLD-1, first proliferation column (c5), DLD-1 BRCA2-/-, read-out: POLQ PD Prolif Lumin (converted)
[9] = DLD-1, second proliferation column (c6), taken as DLD-1 BRCA2 wt, read-out: POLQ PD Prolif Lumin (converted)
[10] = DLD-1, first proliferation column (c5), taken as DLD-1 BRCA2-/-, read-out: POLQ PD Prolif Lumin (converted)

SMILES: CNCCCOc1ccc(-c2nc3c(OC4(C)CC4)ncnc3n2Cc2cc(C)ccn2)c(Cl)c1 [Example T238, 3-(3-chloro-4-(6-(1-methylcyclopropoxy)-9-((4-methylpyridin-2-yl)methyl)-9H-purin-8-yl)phenoxy)-N-methylpropan-1-amine]
IC50 [1, 3]: > 10 µM | IC50 [2, 4]: 501 nM

SMILES: CNC(=O)COc1ccc(-c2nc3c(OC4(C)CC4)ncnc3n2Cc2ccccc2)c(Cl)c1 [Example D21, 2-(4-(9-benzyl-6-(1-methylcyclopropoxy)-9H-purin-8-yl)-3-chlorophenoxy)-N-methylacetamide]
IC50 [1, 5]: > 10 µM | IC50 [2, 6]: 126 nM

SMILES: CN1CCN(CCOc2ccc(-c3nc4c(OC5(C)CC5)ncnc4n3Cc3ccccc3)c(F)c2)CC1 [Example H2, 9-benzyl-8-(2-fluoro-4-(2-(4-methylpiperazin-1-yl)ethoxy)phenyl)-6-(1-methylcyclopropoxy)-9H-purine]
IC50 [1, 5]: 3.16 µM | IC50 [2, 6]: 126 nM

SMILES: CC1(Oc2ncnc3c2nc(-c2ccc(OCCCO)cc2Cl)n3Cc2cc(Cl)ccn2)CC1 [Example T64, 3-(3-chloro-4-(9-((4-chloropyridin-2-yl)methyl)-6-(1-methylcyclopropoxy)-9H-purin-8-yl)phenoxy)propan-1-ol]
IC50 ([1]; DLD-1, DLD1 BRCA2 wt cells, mean, read-out: POLQ PD Prolif Lumin DLD1 mean PIC50 (converted)): > 10 µM | IC50 ([2]; DLD-1, DLD-1 BRCA2 −/− cells, mean, read-out: POLQ PD Prolif Lumin BRCA2 −/− mean pIC50 (converted)): 158 nM

SMILES: CC1(Oc2ncnc3c2nc(-c2ccc(OCC4(F)CNC4)cc2Cl)n3Cc2ccccc2)CC1 [Example D19, 9-benzyl-8-(2-chloro-4-((3-fluoroazetidin-3-yl)methoxy)phenyl)-6-(1-methylcyclopropoxy)-9H-purine]
IC50 [1, 5]: 5.01 µM | IC50 [2, 6]: 501 nM

SMILES: CN1CCN(CCOc2ccc(-c3nc4c(OC5(C)CC5)ncnc4n3Cc3ccccc3)c(Cl)c2)CC1 [Example 4, 9-Benzyl-8-(2-chloro-4-(2-(4-methylpiperazin-1-yl)ethoxy)phenyl)-6-(1-methylcyclopropoxy)-9H-purine]
IC50 [1, 5]: 3.98 µM | IC50 [2, 6]: 63.1 nM

SMILES: Cc1csc(Cn2c(-c3ccc(OCCN4CCNCC4)cc3Cl)nc3c(OC4(C)CC4)ncnc32)n1 [Example T248, 2-((8-(2-chloro-4-(2-(piperazin-1-yl)ethoxy)phenyl)-6-(1-methylcyclopropoxy)-9H-purin-9-yl)methyl)-4-methylthiazole]
IC50 [1, 3]: > 10 µM | IC50 [2, 4]: 2000 nM

SMILES: Cc1cnc(Cn2c(-c3cccc(OCCCN4CC(O)C4)c3Cl)nc3c(OC4(C)CC4)ncnc32)s1 [Example T246, 1-(3-(2-chloro-3-(6-(1-methylcyclopropoxy)-9-((5-methylthiazol-2-yl)methyl)-9H-purin-8-yl)phenoxy)propyl)azetidin-3-ol]
IC50 [1, 3]: > 10 µM | IC50 [2, 4]: 794 nM

SMILES: CC(=O)N1CCN(CCOc2ccc(-c3nc4c(OC5(C)CC5)ncnc4n3Cc3ccccc3)c(Cl)c2)CC1 [Example D5, 1-(4-(2-(4-(9-benzyl-6-(1-methylcyclopropoxy)-9H-purin-8-yl)-3-chlorophenoxy)ethyl)piperazin-1-yl)ethan-1-one]
IC50 [1, 5]: 2.51 µM | IC50 [2, 6]: 63.1 nM

SMILES: CC1(Oc2ncnc3c2nc(-c2ccc(OCCN4CCNCC4)cc2Cl)n3Cc2ncc(C(F)(F)F)s2)CC1 [Example T207, 2-((8-(2-chloro-4-(2-(piperazin-1-yl)ethoxy)phenyl)-6-(1-methylcyclopropoxy)-9H-purin-9-yl)methyl)-5-(trifluoromethyl)thiazole]
IC50 [1, 3]: 10 µM | IC50 [2, 4]: 794 nM

SMILES: C[C@@H]1CNCCN1CCOc1ccc(-c2nc3c(OC4(C)CC4)ncnc3n2Cc2ccccc2)c(Cl)c1 [Example R11, (R)-9-benzyl-8-(2-chloro-4-(2-(2-methylpiperazin-1-yl)ethoxy)phenyl)-6-(1-methylcyclopropoxy)-9H-purine]
IC50 [1, 5]: 2.51 µM | IC50 [2, 6]: 100 nM

SMILES: CC1(Oc2ncnc3c2nc(-c2ccc(N4CCC(N)CC4)cc2Cl)n3Cc2cc(Cl)ccn2)CC1 [Example T230, 1-(3-chloro-4-(9-((4-chloropyridin-2-yl)methyl)-6-(1-methylcyclopropoxy)-9H-purin-8-yl)phenyl)piperidin-4-amine]
IC50 [1, 3]: > 10 µM | IC50 [2, 4]: 398 nM

SMILES: Cc1nc(Cn2c(-c3ccc(OCCN4CCNCC4)cc3Cl)nc3c(OC4(C)CC4)ncnc32)cs1 [Example K6, 4-((8-(2-chloro-4-(2-(piperazin-1-yl)ethoxy)phenyl)-6-(1-methylcyclopropoxy)-9H-purin-9-yl)methyl)-2-methylthiazole]
IC50 [1, 5]: > 10 µM | IC50 [2, 6]: 3980 nM

SMILES: C[C@H]1CN(CCOc2ccc(-c3nc4c(OC5(C)CC5)ncnc4n3Cc3ccccc3)c(Cl)c2)CCN1 [Example R3, (S)-9-benzyl-8-(2-chloro-4-(2-(3-methylpiperazin-1-yl)ethoxy)phenyl)-6-(1-methylcyclopropoxy)-9H-purine]
IC50 [1, 5]: 3.16 µM | IC50 [2, 6]: 63.1 nM

SMILES: Cc1ccnc(Cn2c(-c3ccc(OC4CN(C(N)=O)C4)cc3Cl)nc3c(OC4(C)CC4)ncnc32)c1 [Example T205, 3-(3-chloro-4-(6-(1-methylcyclopropoxy)-9-((4-methylpyridin-2-yl)methyl)-9H-purin-8-yl)phenoxy)azetidine-1-carboxamide]
IC50 [1, 3]: > 10 µM | IC50 [2, 4]: 398 nM

SMILES: Cc1cc(O[C@H]2CCCNC2)ncc1-c1nc2c(OC3(C)CC3)ncnc2n1Cc1ccccc1 [Example G13, (S)-9-benzyl-8-(4-methyl-6-(piperidin-3-yloxy)pyridin-3-yl)-6-(1-methylcyclopropoxy)-9H-purine]
IC50 [1, 5]: > 10 µM | IC50 [2, 6]: 501 nM

Further lines, with some results ahead:

IC50 [1, 7]: > 10 µM
SMILES: Cc1ccnc(Cn2c(-c3ccc(CCN4CCCC4)cc3Cl)nc3c(OC4(C)CC4)ncnc32)c1 [Example T505, 8-(2-chloro-4-(2-(pyrrolidin-1-yl)ethyl)phenyl)-6-(1-methylcyclopropoxy)-9-((4-methylpyridin-2-yl)methyl)-9H-purine]
IC50 [2, 8]: 158 nM

IC50 [1, 9]: 10 µM
SMILES: CC1(Oc2ncnc3c2nc(-c2ccc(OCCN4CCNCC4)cc2Cl)n3Cc2nccc(Cl)c2F)CC1 [Example T345, 9-((4-chloro-3-fluoropyridin-2-yl)methyl)-8-(2-chloro-4-(2-(piperazin-1-yl)ethoxy)phenyl)-6-(1-methylcyclopropoxy)-9H-purine]
IC50 [2, 10]: 794 nM

IC50 [1, 9]: > 10 µM
SMILES: Cc1cnc(Cn2c(-c3ccc(OCCCN4CCCC4)cc3Cl)nc3c(OC4(C)CC4)ncnc32)s1 [Example T388, 2-((8-(2-chloro-4-(3-(pyrrolidin-1-yl)propoxy)phenyl)-6-(1-methylcyclopropoxy)-9H-purin-9-yl)methyl)-5-methylthiazole]
IC50 [2, 10]: 251 nM

IC50 [1, 7]: > 10 µM
SMILES: Cc1cnc(Cn2c(-c3ccc(OCCN4CCNCC4)cc3Cl)nc3c(OC4(C)CC4)ncnc32)cc1Cl [Example T526, 8-(2-chloro-4-(2-(piperazin-1-yl)ethoxy)phenyl)-9-((4-chloro-5-methylpyridin-2-yl)methyl)-6-(1-methylcyclopropoxy)-9H-purine]
IC50 [2, 8]: 631 nM

IC50 ([1]; DLD-1, DLD1 BRCA2 wt, mean, read-out: POLQ PD Prolif Lumin DLD1 mean pIC50 (converted)): > 10 µM
SMILES: COc1ccc(Cl)cc1Cn1c(-c2ccc(OCCOCC(=O)O)cc2Cl)nc2c(OC3(C)CC3)ncnc21 [Example U48, 2-(2-(3-chloro-4-(9-(5-chloro-2-methoxybenzyl)-6-(1-methylcyclopropoxy)-9H-purin-8-yl)phenoxy)ethoxy)acetic acid]
IC50 ([2]; DLD-1, DLD-1 BRCA2 −/−, mean, read-out: POLQ PD Prolif Lumin BRCA2 −/− mean pIC50 (converted)): 631 nM

IC50 ([1]; DLD-1, proliferation, luminescence, second Prolif column (c6), taken as DLD-1 BRCA2 wt control, read-out: POLQ PD Prolif Lumin (converted)): > 10 µM
SMILES: C[C@@H](CCOc1ccc(-c2nc3c(OC4(C)CC4)ncnc3n2Cc2ccccc2C#N)c(Cl)c1)C(=O)O [Example T403, (S)-4-(3-chloro-4-(9-(2-cyanobenzyl)-6-(1-methylcyclopropoxy)-9H-purin-8-yl)phenoxy)-2-methylbutanoic acid]
IC50 ([2]; DLD-1, proliferation, luminescence, taken as DLD-1 BRCA2-/-, read-out: POLQ PD Prolif Lumin (converted)): 398 nM

IC50 [1, 9]: > 10 µM
SMILES: Cc1ccnc(Cn2c(-c3ccc(C(=O)N4CC[C@@H](O)C4)cc3Cl)nc3c(OC4(C)CC4)ncnc32)c1 [Example T311, (R)-(3-chloro-4-(6-(1-methylcyclopropoxy)-9-((4-methylpyridin-2-yl)methyl)-9H-purin-8-yl)phenyl)(3-hydroxypyrrolidin-1-yl)methanone]
IC50 [2, 10]: 3980 nM

IC50 ([1]; DLD-1, second proliferation column, DLD-1 BRCA2 wt control, read-out: POLQ PD Prolif Lumin (converted)): > 10 µM
SMILES: Cc1ccnc(Cn2c(-c3cccc(OCCCN4CC[C@@H](O)C4)c3Cl)nc3c(OC4(C)CC4)ncnc32)c1 [Example T593, (R)-1-(3-(2-chloro-3-(6-(1-methylcyclopropoxy)-9-((4-methylpyridin-2-yl)methyl)-9H-purin-8-yl)phenoxy)propyl)pyrrolidin-3-ol]
IC50 ([2]; DLD-1, first proliferation column, DLD-1 BRCA2-/-, read-out: POLQ PD Prolif Lumin (converted)): 251 nM
